# Laboratory results reported in ChEMBL document CHEMBL3808309, “Interpreting the behavior of concentration-response curves of hyaluronidase inhibitors under DMSO-perturbed assay conditions” (Bioorg Med Chem Lett, 2016).
# Calls of active or inactive are those of the source. No cut-off for these calls is given here.
# Tests used:
# [1] = species: Bos taurus; experiment: Inhibition of bovine testis hyaluronidase preincubated with CaCl2 for 20 mins followed by incubation with compound for 20 mins and substrate for 10 mins by colorimetric Morgan-Elson method in presence of up to 21% DMSO
# [2] = Inhibition of bovine testis hyaluronidase using hyaluronic acid as substrate preincubated for 20 mins followed by incubation with CaCl2 for 20 mins and substrate for 10 mins by colorimetric Morgan-Elson method; set-up: species or system Bos taurus
# [3] = Inhibition of bovine testis hyaluronidase preincubated with CaCl2 for 20 mins followed by incubation with compound for 20 mins and substrate for 10 mins by colorimetric Morgan-Elson method in presence of urea; set-up: species or system Bos taurus
# [4] = Inhibition of bovine testis hyaluronidase using hyaluronic acid as substrate preincubated with CaCl2 for 20 mins followed by incubation with compound for 20 mins and substrate for 10 mins by colorimetric Morgan-Elson method in presence of BSA; set-up: species or system Bos taurus
# [5] = Inhibition of bovine testis hyaluronidase using hyaluronic acid as substrate preincubated with CaCl2 for 20 mins followed by incubation with compound for 20 mins and substrate for 10 mins by colorimetric Morgan-Elson method; set-up: species or system Bos taurus
# [6] = Inhibition of bovine testis hyaluronidase using hyaluronic acid as substrate preincubated with CaCl2 for 20 mins followed by incubation with of compound for 20 mins and substrate for 10 mins by colorimetric Morgan-Elson method in presence of 0.05% triton X-100; set-up: species or system Bos taurus
# [7] = species: Bos taurus; experiment: Ratio of IC50 for inhibition of bovine testis hyaluronidase preincubated with CaCl2 for 20 mins followed by addition of compound to IC50 for inhibition of bovine testis hyaluronidase preincubated for 20 mins followed by addition of CaCl2
# [8] = species: Bos taurus; experiment: Inhibition of bovine testis hyaluronidase using hyaluronic acid as substrate at 3000 uM preincubated with CaCl2 for 20 mins followed by incubation with compound for 20 mins and substrate for 10 mins by colorimetric Morgan-Elson method in presence of 0.05% triton X-100
Structure (SMILES),inhibition [1],IC50 [2] [µM],IC50 [3] [µM],IC50 [4] [µM],IC50 [5] [µM],IC50 [6] [µM],Ratio IC50 [7],inhibition [8] [%]
CCCCCCCCCCCCCCCC(=O)OC[C@H](O)C1OC(=O)C(O)=C1O (some centres not stated),Active,23,,240,47,480,,
COc1ccc2c(c1)c(CC(=O)O)c(C)n2C(=O)c1ccc(Cl)cc1 [INDOMETHACIN],,340,,2000,1400,,,< 50

# Further lines, results first:
inhibition [1],IC50 [2] [µM],IC50 [3] [µM],IC50 [4] [µM],IC50 [5] [µM],IC50 [6] [µM],Ratio IC50 [7],inhibition [8] [%],Structure (SMILES)
inactive,330,1600,1600,1700,1700,,,O=C(O)c1cc(=O)c2c(OCC(O)COc3cccc4oc(C(=O)O)cc(=O)c34)cccc2o1 [CROMOLYN SODIUM]
inactive,8.5,31,61,29,40,> 3,,CC1(C)[C@@H](O[C@H]2O[C@H](C(=O)O)[C@@H](O)[C@H](O)[C@H]2O[C@@H]2O[C@H](C(=O)O)[C@@H](O)[C@H](O)[C@H]2O)CC[C@]2(C)[C@H]3C(=O)C=C4[C@@H]5C[C@@](C)(C(=O)O)CC[C@]5(C)CC[C@@]4(C)[C@]3(C)CC[C@@H]12 [GLYCYRRHIZIN]
inactive,450,,1600,1400,1000,,,O=C(O)[C@H]1O[C@@H](Oc2cc3oc(-c4ccccc4)cc(=O)c3c(O)c2O)[C@H](O)[C@@H](O)[C@@H]1O [BAICALIN]
